{"source": "ChEMBL document CHEMBL1201862", "about": "“PubChem BioAssay data set” (2004)", "key": {"Cytochrome P450 1A2": {"molecular_target": "T1, Cytochrome P450 1A2 (Homo sapiens, UniProt P05177)", "T1 sequence (P05177 whole entry)": "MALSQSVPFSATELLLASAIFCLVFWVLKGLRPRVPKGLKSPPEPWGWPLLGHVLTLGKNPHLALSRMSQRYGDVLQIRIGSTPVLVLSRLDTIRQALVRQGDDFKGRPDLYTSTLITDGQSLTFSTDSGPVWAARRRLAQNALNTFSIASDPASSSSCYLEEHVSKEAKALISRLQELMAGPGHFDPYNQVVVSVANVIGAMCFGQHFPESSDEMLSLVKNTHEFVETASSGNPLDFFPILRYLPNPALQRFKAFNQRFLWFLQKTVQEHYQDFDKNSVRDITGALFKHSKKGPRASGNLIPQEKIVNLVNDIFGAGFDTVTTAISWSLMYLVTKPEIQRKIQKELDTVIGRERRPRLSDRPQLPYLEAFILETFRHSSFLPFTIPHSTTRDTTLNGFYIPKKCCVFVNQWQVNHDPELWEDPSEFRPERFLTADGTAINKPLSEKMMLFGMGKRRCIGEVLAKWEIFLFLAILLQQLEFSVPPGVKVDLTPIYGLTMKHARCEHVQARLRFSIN"}, "Cytochrome P450 2C19": {"molecular_target": "Cytochrome P450 2C19 (Homo sapiens, UniProt P33261)", "sequence (P33261 whole entry)": "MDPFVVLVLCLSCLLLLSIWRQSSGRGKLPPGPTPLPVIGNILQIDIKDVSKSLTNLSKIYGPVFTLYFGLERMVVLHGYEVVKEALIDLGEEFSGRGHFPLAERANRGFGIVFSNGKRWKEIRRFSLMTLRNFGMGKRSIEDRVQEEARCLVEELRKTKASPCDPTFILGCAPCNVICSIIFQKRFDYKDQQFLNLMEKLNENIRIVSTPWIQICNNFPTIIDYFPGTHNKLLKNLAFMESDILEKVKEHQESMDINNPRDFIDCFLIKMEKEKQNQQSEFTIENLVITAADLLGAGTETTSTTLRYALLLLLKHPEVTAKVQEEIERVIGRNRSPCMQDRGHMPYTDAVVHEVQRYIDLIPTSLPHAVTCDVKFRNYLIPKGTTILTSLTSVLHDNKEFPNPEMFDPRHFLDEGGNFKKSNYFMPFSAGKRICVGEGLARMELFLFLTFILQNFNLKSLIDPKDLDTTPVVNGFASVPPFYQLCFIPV", "test": "Cytochrome panel assay with activity outcomes. Panel member name: p450-cyp2c19 Compounds with AC50 equal or less than 10 uM are considered active", "format": "functional", "settings": "read-out: AC50"}, "Cytochrome P450 2C9": {"molecular_target": "Cytochrome P450 2C9 (Homo sapiens, UniProt P11712)", "sequence (P11712 whole entry)": "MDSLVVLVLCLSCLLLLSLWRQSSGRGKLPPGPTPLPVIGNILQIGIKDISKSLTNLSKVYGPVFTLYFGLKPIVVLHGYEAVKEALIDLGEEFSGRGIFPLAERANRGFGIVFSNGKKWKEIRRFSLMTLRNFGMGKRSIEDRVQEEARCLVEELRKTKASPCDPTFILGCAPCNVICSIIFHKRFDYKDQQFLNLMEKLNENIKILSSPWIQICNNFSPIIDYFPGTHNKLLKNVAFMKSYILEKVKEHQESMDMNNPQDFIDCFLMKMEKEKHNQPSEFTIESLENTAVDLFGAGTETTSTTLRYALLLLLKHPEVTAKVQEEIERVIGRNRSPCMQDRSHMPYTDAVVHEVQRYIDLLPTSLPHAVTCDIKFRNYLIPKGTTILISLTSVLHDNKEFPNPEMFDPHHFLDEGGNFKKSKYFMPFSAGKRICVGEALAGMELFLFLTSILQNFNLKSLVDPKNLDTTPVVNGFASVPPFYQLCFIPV"}, "[1]": {"test": "Luminescence Cell-Based Dose Response HTS to Identify Activators of Luciferase Translation or Activity in H4 […] Cells. [Related pubchem assays: 1829 (Project Summary), 1814 (Primary HTS)]", "format": "functional"}, "[2]": {"test": "Luminescence Cell-Based Dose Confirmation HTS to Identify Activators of 5'UTR Stem-Loop Driven Alpha-Synuclein mRNA Translation in H4 Neuroglioblastoma Cells. [Related pubchem assays: 1829 (Project Summary), 1814 (Primary HTS)]", "format": "functional"}, "H4": {"test_system": "H4", "test": "Luminescence Cell-Based Dose Response HTS to Identify Activators of 5'UTR Stem-Loop Driven Prion Protein mRNA Translation in H4 Neuroglioblastoma Cells. [Related pubchem assays: 1829 (Project Summary), 1814 (Primary HTS)]", "format": "functional", "settings": "Homo sapiens"}, "Cytochrome P450 3A4": {"molecular_target": "Cytochrome P450 3A4 (Homo sapiens, UniProt P08684)", "sequence (P08684 whole entry)": "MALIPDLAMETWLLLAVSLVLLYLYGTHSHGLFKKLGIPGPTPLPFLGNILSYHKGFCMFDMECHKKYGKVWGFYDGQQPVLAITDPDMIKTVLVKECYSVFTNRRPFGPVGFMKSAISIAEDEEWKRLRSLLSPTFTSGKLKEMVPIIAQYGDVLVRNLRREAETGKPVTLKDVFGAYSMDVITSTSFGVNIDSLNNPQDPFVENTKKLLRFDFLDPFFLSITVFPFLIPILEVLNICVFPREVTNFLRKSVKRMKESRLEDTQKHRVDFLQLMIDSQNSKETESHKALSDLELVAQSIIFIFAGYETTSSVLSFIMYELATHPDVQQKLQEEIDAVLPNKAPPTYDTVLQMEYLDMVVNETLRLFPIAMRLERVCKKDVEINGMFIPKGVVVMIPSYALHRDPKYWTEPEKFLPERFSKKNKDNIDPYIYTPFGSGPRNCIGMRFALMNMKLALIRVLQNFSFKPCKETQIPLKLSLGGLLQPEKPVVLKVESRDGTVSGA"}, "[3]": {"molecular_target": "T2, Heat shock factor protein 1 (Mus musculus, UniProt P38532)", "T2 sequence (P38532 whole entry)": "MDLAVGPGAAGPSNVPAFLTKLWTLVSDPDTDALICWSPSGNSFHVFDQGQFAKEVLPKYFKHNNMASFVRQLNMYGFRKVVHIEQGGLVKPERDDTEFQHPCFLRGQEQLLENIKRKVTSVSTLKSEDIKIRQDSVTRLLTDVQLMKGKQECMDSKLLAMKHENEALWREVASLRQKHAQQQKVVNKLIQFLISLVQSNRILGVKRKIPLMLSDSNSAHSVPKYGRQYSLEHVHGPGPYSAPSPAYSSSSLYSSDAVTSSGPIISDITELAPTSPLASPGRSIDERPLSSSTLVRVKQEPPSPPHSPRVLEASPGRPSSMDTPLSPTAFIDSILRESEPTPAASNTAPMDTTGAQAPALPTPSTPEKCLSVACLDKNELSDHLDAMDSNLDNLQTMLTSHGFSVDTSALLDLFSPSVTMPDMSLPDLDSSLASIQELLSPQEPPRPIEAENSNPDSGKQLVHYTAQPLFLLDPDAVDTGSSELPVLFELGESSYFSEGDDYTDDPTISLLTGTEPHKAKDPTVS", "test": "enhancement of HSF1-driven luciferase signal – cell-based, NIH3T3, luminescence, dose retest, confirmation (AID 435004);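 further: stress induced by proteasome inhibitor MG132 added 30 min after compound; actives raise luminescence as potentiators of the MG132 stress response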", "format": "functional"}}, "note": "Activity calls are given as the source filed them."}
{"smiles": "CCOc1ccc(N2C(=O)CN=C2Nc2ccccc2F)cc1", "values": [{"measurement": "AC50", "setting": "Cytochrome P450 1A2", "result": "15.8 µM (inconclusive)"}, {"measurement": "AC50", "setting": "Cytochrome P450 2C19", "result": "25.1 µM (inconclusive)"}]}
{"smiles": "CC(C)c1cccc2nc3c(c([Si](C)(C)C(C)(C)C)c12)Cn1c-3cccc1=O", "values": [{"measurement": "AC50", "setting": "Cytochrome P450 1A2", "result": "25.1 µM (inconclusive)"}, {"measurement": "AC50", "setting": "Cytochrome P450 2C9", "result": "39.8 µM (inconclusive)"}]}
{"smiles": "C/C(CC(=O)Nc1cc(C)cc(C)c1)=N\\NC(=O)c1ccccn1", "values": [{"measurement": "EC50", "setting": "[1]", "result": "> 120 µM (not active)"}, {"measurement": "EC50", "setting": "[2]", "result": "> 120 µM (not active)"}, {"measurement": "EC50", "setting": "H4", "result": "42.2 µM (active)"}]}
{"smiles": "CS(=O)(=O)N1CCCC(C(=O)N2CCc3ccccc3C2)C1", "note": "(configuration not stated)", "values": [{"measurement": "AC50", "setting": "Cytochrome P450 1A2", "result": "25.1 µM (inconclusive)"}, {"measurement": "AC50", "setting": "Cytochrome P450 3A4", "result": "17.8 µM (inconclusive)"}, {"measurement": "AC50", "setting": "Cytochrome P450 2C19", "result": "35.5 µM (inconclusive)"}]}
{"smiles": "CC1CCN(C(=O)Cn2nnc(-c3cccs3)n2)CC1", "values": [{"measurement": "EC50", "setting": "[1]", "result": "59.7 µM (active)"}, {"measurement": "EC50", "setting": "[2]", "result": "4.67 µM (active)"}, {"measurement": "EC50", "setting": "H4", "result": "23.4 µM (active)"}]}
{"smiles": "COC(=O)C1CSC(C(=O)OC)N1C(=O)Nc1c(C)cccc1C", "note": "(configuration not stated)", "values": [{"measurement": "AC50", "setting": "Cytochrome P450 2C9", "result": "25.1 µM (inconclusive)"}]}
{"smiles": "O=C(CSCc1cccc(Cl)c1)N/N=C/c1ccc(OCC(=O)N2CCCCC2)cc1", "values": [{"measurement": "AC50", "setting": "Cytochrome P450 1A2", "result": "20 µM (inconclusive)"}, {"measurement": "AC50", "setting": "Cytochrome P450 2C9", "result": "22.4 µM (inconclusive)"}]}
{"smiles": "CCCN(CCC)CCCNC(=O)C[S+]([O-])Cc1nc(-c2ccc(OC)c(OC)c2)oc1C", "note": "(configuration not stated)", "values": [{"measurement": "AC50", "setting": "Cytochrome P450 1A2", "result": "3.16 µM (inconclusive)"}, {"measurement": "AC50", "setting": "Cytochrome P450 3A4", "result": "7.94 µM (inconclusive)"}, {"measurement": "AC50", "setting": "Cytochrome P450 2C9", "result": "39.8 µM (inconclusive)"}, {"measurement": "EC50", "setting": "[3]", "result": "> 260 µM (inactive)"}]}
{"smiles": "N#CC1=C(N)N2C(=C(C#N)C13CCCCC3)SC1CCCCC12O", "note": "(configuration not stated)", "values": [{"measurement": "EC50", "setting": "[3]", "result": "> 260 µM (inactive)"}]}
{"smiles": "COCCCNC(=O)C1CC(=O)N(Cc2ccc(OC)cc2)C1", "note": "(configuration not stated)", "values": [{"measurement": "AC50", "setting": "Cytochrome P450 3A4", "result": "20 µM (inconclusive)"}, {"measurement": "AC50", "setting": "Cytochrome P450 2C19", "result": "22.4 µM (inconclusive)"}]}
{"smiles": "O=C1CC(N2CCC(c3nc4ccccc4[nH]3)CC2)C(=O)N1c1ccccc1F", "note": "(configuration not stated)", "values": [{"measurement": "EC50", "setting": "[3]", "result": "> 260 µM (inactive)"}]}
{"smiles": "O=P(Nc1c(Cl)cccc1Cl)(c1ccccc1)c1nc2c(s1)CCCC2", "note": "(configuration not stated)", "values": [{"measurement": "AC50", "setting": "Cytochrome P450 2C9", "result": "17.8 µM (inconclusive)"}, {"measurement": "AC50", "setting": "Cytochrome P450 2C19", "result": "20 µM (inconclusive)"}]}
{"smiles": "COc1cccc(Nc2ncc3nc(-c4ccccc4)c(=O)n(C4CC4)c3n2)c1", "values": [{"measurement": "AC50", "setting": "Cytochrome P450 2C9", "result": "10 µM (inconclusive)"}]}
{"smiles": "CC1(C)C(=O)C(c2ccccc2)=C2CN3C(=O)N(CCc4ccccc4)C(=O)C3(Cc3ccccc3)C=C21", "note": "(configuration not stated)", "values": [{"measurement": "AC50", "setting": "Cytochrome P450 1A2", "result": "6.31 µM (inconclusive)"}, {"measurement": "AC50", "setting": "Cytochrome P450 2C9", "result": "12.6 µM (inconclusive)"}]}
{"smiles": "Clc1ccccc1CSc1ncn(-c2ccccc2)n1", "values": [{"measurement": "EC50", "setting": "[1]", "result": "0.42 µM (active)"}, {"measurement": "EC50", "setting": "[2]", "result": "0.191 µM (active)"}, {"measurement": "EC50", "setting": "H4", "result": "36.9 µM (active)"}]}
{"smiles": "COc1ccc(NCc2nnc(SCC(=O)c3ccc(OC)cc3)n2C)cc1", "values": [{"measurement": "EC50", "setting": "[1]", "result": "> 120 µM (not active)"}, {"measurement": "EC50", "setting": "[2]", "result": "> 120 µM (not active)"}, {"measurement": "EC50", "setting": "H4", "result": "> 120 µM (not active)"}]}
{"smiles": "Cc1ccc2nsnc2c1S(=O)(=O)N(CCO)Cc1cc2cc3c(cc2nc1O)OCCO3", "values": [{"measurement": "EC50", "setting": "[1]", "result": "8.99 µM (active)"}, {"measurement": "EC50", "setting": "[2]", "result": "14.2 µM (active)"}, {"measurement": "EC50", "setting": "H4", "result": "10.4 µM (active)"}]}
{"smiles": "COc1ccccc1CNc1cc(-c2cccc(C#N)c2)ncn1", "values": [{"measurement": "AC50", "setting": "Cytochrome P450 3A4", "result": "25.1 µM (inconclusive)"}, {"measurement": "AC50", "setting": "Cytochrome P450 2C19", "result": "6.31 µM (inconclusive)"}]}
{"smiles": "Cc1cc(C)c(C#N)c(Oc2ccccc2)n1", "values": [{"measurement": "AC50", "setting": "Cytochrome P450 2C19", "result": "11.2 µM (inconclusive)"}]}
{"smiles": "C=C1S/C(=N/c2ccccc2Cl)N(C(=O)c2sc3ccccc3c2Cl)C1(C)C", "values": [{"measurement": "EC50", "setting": "[3]", "result": "> 260 µM (inactive)"}]}
